Data published in paper PMC4546618, “Casitas B-Lineage Lymphoma RING Domain Inhibitors Protect Mice against High-Fat Diet-Induced Obesity and Insulin Resistance” (PLoS ONE, 2015).
Values belong to the compound of their own block, whether it stands above or below them. Where a SMILES comes first, the peptide text is derived from it. [ ]: non-standard residue; d: D form. Phe(4-N3) = [N-]=[N+]=Nc1ccc(C[C@H](N)C(=O)O)cc1; Phe(4-CF3) = N[C@@H](Cc1ccc(C(F)(F)F)cc1)C(=O)O; Pro(trans-4-F) = O=C(O)[C@@H]1C[C@@H](F)CN1; Phe(3-F) = N[C@@H](Cc1cccc(F)c1)C(=O)O; ΔPro = O=C(O)[C@@H]1C=CCN1; Pip = O=C(O)[C@@H]1CCCCN1; Thz = O=C(O)[C@@H]1CSCN1; Aze = O=C(O)[C@@H]1CCN1

Columns and labels:
Cbl (RING) protein = molecular target: T1, Cbl (RING) protein (Homo sapiens, UniProt P22681); test: Fluorescence polarization (FP) assay, competition with FITC-βA-PFKPP-NH2 probe; format: binding; conditions: probe FITC-βA-PFKPP-NH2 100 nmol/L, Cbl (RING) protein 3 μmol/L, PBS pH 7.4
T1 construct: including the linker and RING domain (codon 358–457); GST (Glutathione S-Transferase); made in house
T1 sequence (P22681 358-457): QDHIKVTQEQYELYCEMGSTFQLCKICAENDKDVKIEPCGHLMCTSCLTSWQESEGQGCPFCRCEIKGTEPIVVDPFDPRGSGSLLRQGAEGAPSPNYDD
Protocol: Peptides and peptide mimetics were purchased from MitenChem (China) with a purity ≥ 98%. Concentrations values of reconstituted peptides were determined by amino acid analysis at the protein core facility (Chengdu Medical College). The recombinant Cbl protein was produced by the Chengdu Medical College Protein Core Facility and was described previously. The c-Cbl (RING) protein, including the linker and RING domain (codon 358–457), was tagged with Glutathione S-Transferase (GST) and purified with GSH-Sepharose (Shanghai Biopharma).
The FP assay was developed and validated previously. Briefly, fluorescein-labeled probe (FITC-βA-PFKPP-NH2, 100 nmol/L) and Cbl (RING) protein (3 μmol/L) were mixed and diluted to the final concentration using 0.01% Triton X-100 in PBS (pH = 7.4). Then, 19 μl of this master mix was loaded to each reaction well. The peptides or peptide mimetics were then loaded to the designated wells (1 μl, 10 μmol/L– 0.078 μmol/L, half-fold dilutions). The total fluorescence and polarization values were measured at an excitation wavelength of 485 nm and an emission wavelength of 538 nm using a ZS-2 plate reader. The data was fitted, and the ΔmP, Kd, and Ki values were estimated, using SigmaPlot 11.0.

mice fed a high-fat diet [1] = test: Indirect energy expenditure and physical activity measurement; format: in vivo; conditions: after 12 weeks daily i.p. 5 mg/kg on high-fat diet
Protocol: (§1) All experiments were approved by the institutional Animal Care and Use Committee (Chengdu Medical College, China). All experiments were carried out in 10-week-old male mice maintained on the C57BL/6 background. All the animals were kept on a 12-h light/dark cycle with free access to food and water.
(§2) Animals (n = 90) were randomly assigned to one of the nine groups (Table 1). Animals were fed ad libitum with a high-fat diet (60% of caloric intake from fat (70% saturated fat), 20% from carbohydrates, and 20% from protein) before experiments and for another 12 weeks during the experiments. Food intake was measured manually on a daily basis. Eight groups of animals were treated with indicated peptides with a daily i.p. injection at 5 mg/kg and one group of animals were treated with vehicle.
After receiving 12 weeks of treatment as described above, rates of oxygen consumption (VO2) was measured using a four-chamber indirect calorimeter (Langguan, China, air flow of 0.5 l/min). A total of 2-hour measurement for each animal was conducted at 15-minuate intervals under room temperature (22°C). Ambulatory activity was estimated by counting the number of photobeam breaks in a three-sensor chamber instrument (Rui Pharm, China), and the cumulative ambulatory activity counts were recorded every hour. A total of 12 h-day time and 12 h-night activity were recorded for each animal.

mice fed a high-fat diet [2] = test: High-fat diet-induced obesity: body weight, food intake, body composition, adipocyte volume; format: in vivo; conditions: daily i.p. 5 mg/kg, 12 weeks
Protocol: as §1, §2
Body composition was measured using nuclear magnetic resonance (NMR) technology at Chengdu College core facility. Epididymal fat pads were excised and adipocytes were isolated. Cells were then fixed using 2% OsO4 in PBS overnight at 37°C [2].

mice = test: Acute toxicity in mice; format: in vivo; conditions: up to 15 mg/kg i.p.
Protocol: as §1
The control group (n = 10) received vehicle only. Eight groups (10 mice each) were treated with increasing doses of either peptide 1, 3, 10, 34, 2, 60, 49, and 51 up to 15 mg/kg by i.p. Number of death, sedation, spontaneous motor activity, alertness, ptosis, dyspnea, convulsion, diarrhea, urination, postural reflex, piloerection, nociception, grooming, vocalization, rearing, climbing and aggression were observed every 12 hours for 72 h. Animals were maintained for another 14 days after the initial examination. We planned to sacrifice the animals if they show severe signs of pain or distress, a body weight loss in excess of 15% of its body weight, or a deterioration of the body condition score to BC2(-) or below. However, none of the animals qualified for the mentioned the symptoms. No animals died during the whole study. At the end of the experiment, animals were euthanized by CO2 asphyxiation followed by cervical dislocation, the livers, spleens and kidneys were collected and formalin-fixed paraffin-embedded for H&E staining.

[3] = Pharmacokinetic studies, plasma concentration after i.p. injection; format: in vivo; conditions: mice, i.p. 4 mg/kg
Protocol: as §1
Peptides (1, 3, 10, 34, 2, 60, 49, and 51) were dissolved in sterile aqueous 5% dextrose and administered to mice by i.p. injection (4 mg/kg). Blood samples were collected from the tail tip at 0, 0.5, 1, 6, 12, 18, 24 and 48 hours. Plasma samples were harvested by centrifugation and stored at -80°C until assayed. Peptide concentrations in plasma were determined by Reversed-Phase High-Performance Liquid Chromatography (RP-HPLC) with electrospray ionization mass spectrometric ([…]) detection. Samples were assayed with a series of 8 calibration standards of peptide in plasma at concentrations ranging from 50 to 6000 μg/L. Peptide concentrations were determined by comparing to the standards.

Compound: CC(=O)N[C@@H](CCCCN)C(=O)N1CC[C@H]1C(=O)N[C@@H](C)C(=O)N[C@H](C(=O)N[C@@H](CCCCN)C(N)=O)[C@@H](C)O [Peptide 48, Ac-K(q)ATK-NH2] (Ac-K[Aze]ATK-NH2)
Ki (Cbl (RING) protein): 59.6 ± 13.5 µM

Compound: CC(=O)N[C@@H](CCCCN)C(=O)N1C[C@H](F)C[C@H]1C(=O)N[C@@H](C)C(=O)N[C@@H](CC(C)C)C(=O)N[C@@H](CCCCN)C(N)=O [Peptide 60, Ac-K(t)ALK-NH2] (Ac-K[Pro(trans-4-F)]ALK-NH2)
Oxygen consumption VO2 (mice fed a high-fat diet [1]; vehicle 4.15 ± 0.55): 4.16 ± 0.29 mL/g/h
Ambulatory day activity (mice fed a high-fat diet [1]; photobeam break counts, vehicle 2,069 ± 705): 2,025 ± 945 per 12 h
Ambulatory night activity (mice fed a high-fat diet [1]; photobeam break counts, vehicle 6,289 ± 1,216): 5,993 ± 1,278 per 12 h
percentage of perigonadal fat mass (mice fed a high-fat diet [2]; NMR, vehicle 8 ± 0.8%): 7.8 ± 0.7%
adipocyte volume (mice fed a high-fat diet [2]; adipocytes from epididymal fat pad, vehicle 510 ± 42 pL): 520 ± 26 pL
signs of acute toxicity (mice; 72 hours): did not show vital signs of acute toxicity
death of animals (mice; another 14 days following the initial examination): None of the animals died
H&E staining of livers, spleens and kidneys (mice; end of experiment): does not show any sign of injuries
Ki (Cbl (RING) protein): 228 ± 20.2 µM
Cmax ([3]; male, C57BL/6, mouse, plasma, ip, observed in 60 min, read-out: maximum concentration in plasma): 4280 ng/mL
plasma concentrations compared to the parental peptides 1 and 2 ([3]; at each time point after 1 hour): greater plasma concentrations

Compound: CC(=O)N1CC=C[C@H]1C(=O)N[C@@H](Cc1cccc(F)c1)C(=O)N[C@@H](CCCCN)C(=O)N1CCC[C@H]1C(=O)N1CCC[C@H]1C(N)=O [Peptide 32, Ac-(p) (h)KPP-NH2] (Ac-[ΔPro][Phe(3-F)]KPP-NH2)
Ki (Cbl (RING) protein): > 250 µM

Compound: CC(=O)N[C@@H](CCCCN)C(=O)N1CCCC[C@H]1C(=O)N[C@@H](C)C(=O)N[C@H](C(=O)N[C@@H](CCCCN)C(N)=O)[C@@H](C)O [Peptide 50, Ac-K(s)ATK-NH2] (Ac-K[Pip]ATK-NH2)
Ki (Cbl (RING) protein): 32.6 ± 10.9 µM

Compound: CC(=O)N[C@@H](CCCCN)C(=O)N1CSC[C@H]1C(=O)N[C@H](C(=O)N[C@H](C(=O)N[C@@H](CCCCN)C(N)=O)[C@@H](C)O)[C@@H](C)O [Peptide 54, Ac-K(r)TTK-NH2] (Ac-K[Thz]TTK-NH2)
Ki (Cbl (RING) protein): 201 ± 14.4 µM

More lines, now with the values ahead:

Ki (Cbl (RING) protein): 25.4 ± 0.7 µM
Compound: CC(=O)N1CCC[C@H]1C(=O)N[C@@H](Cc1ccc(C(F)(F)F)cc1)C(=O)N[C@@H](CCCCN)C(=O)N1CCC[C@H]1C(=O)N1CCC[C@H]1C(N)=O [Peptide 14, Ac-P(l)KPP-NH2] (Ac-P[Phe(4-CF3)]KPP-NH2)

Ki (Cbl (RING) protein): 8.4 ± 0.4 µM
Compound: CC(=O)N1CCC[C@H]1C(=O)N[C@@H](Cc1ccc(N=[N+]=[N-])cc1)C(=O)N[C@@H](CCCCN)C(=O)N1CCC[C@H]1C(=O)N1CCC[C@H]1C(N)=O [Peptide 15, Ac-P(m)KPP-NH2] (Ac-P[Phe(4-N3)]KPP-NH2)

Ki (Cbl (RING) protein): 136 ± 11.2 µM
Compound: CC(=O)N1CCC[C@H]1C(=O)N[C@@H](Cc1cccc(F)c1)C(=O)N[C@@H](CCCCN)C(=O)N1CCCC[C@H]1C(=O)N1CCC[C@H]1C(N)=O [Peptide 28, Ac-P(h)K(s)P-NH2] (Ac-P[Phe(3-F)]K[Pip]P-NH2)
